Tests used:
[1] = system: expression of TPD52 members; details: HL-60 and K-562 cells; cited from earlier work
PrLZ expression = assay: Androgen-activated PrLZ expression in prostate cancer cell lines after androgen deprivation; format: cell-based, human
Method: (§1) As an accessory sex organ, development and function of the prostate gland are controlled by androgens, through the mediation of the AR (Gelmann, J. Clin. Oncol. 20:3001-15, 2002). To investigate the possible regulation of PrLZ by androgens, we treated prostate cancer cell lines with an androgen analog, methyltrienolone (R1881, 1 nM), after androgen deprivation. Under cell culture conditions for androgen deprivation (phenol red-free RPMI1640 for 48 hours), there was a marked decline in PrLZ expression in all the prostate cancer cell lines. […] This culture system, or another like it, can be used to identify agents that modulate (by either increasing or decreasing) PrLZ expression.
Expression studies: The 502 bp PrLZ gene-specific fragment was subcloned after PCR amplification of the PrLZ cDNA in pBK-CMV, with primers: […], and […]. The amplified DNA was cloned into pGEM-T easy (Promega) and verified by DNA sequencing. The fragment was released from the vector by EcoRi and used in hybridization reactions. Standard protocols were used in Southern and Northern blot hybridizations (Sambrook et al., Molecular cloning, a laboratory manual, Clod Spring Harbor Laboratory Press, 2001), with α-^32P-dCTP used in the labeling step. […]

PSA expression = assay: Androgen-activated PSA expression in LNCaP lineage cells; format: cell-based, human; details: LNCaP vs C4-2 and C4-2B4 cells
Method: as §1
By comparing the patterns of androgen-activated expression of PrLZ and PSA, it became clear that PrLZ was controlled by a regulatory mechanism that was different from the one controlling the PSA expression. […] Thus, along the transition from an AD to an AI state, there were heterologous changes in AR mediated gene regulation. While LNCAP derivative cell lines lost the mechanism of AR-controlled PSA production, they maintained the capability to regulate some other androgen responsive genes, including PrLZ.

| SMILES | Expression of TPD52 members upon treatment [1] | PrLZ expression upon androgen treatment (PrLZ expression; R1881 1 nM after androgen deprivation (phenol red-free RPMI1640, 48 hours), prostate cancer cell lines) | PrLZ transcription upon androgen treatment (PrLZ expression; all LNCaP lineage cells (LNCaP, C4-2, C4-2B4)) | PSA expression upon androgen treatment (PSA expression) |
| --- | --- | --- | --- | --- |
| CCCCCCCCCCCCCC(=O)O[C@@H]1[C@@H](C)[C@@]2(O)[C@@H](C=C(CO)C[C@]3(O)C(=O)C(C)=C[C@@H]23)[C@H]2C(C)(C)[C@]12OC(C)=O [TPA, 12-O-trtradecanoylphorbol-13-acetate] | inhibited |  |  |  |
| C[C@]1(O)CC[C@H]2[C@@H]3CCC4=CC(=O)CCC4=C3C=C[C@@]21C [R1881, methyltrienolone] |  | dramatically activated the expression of the PrLZ | marked PrLZ transcription | androgen-dependent up-regulation only in LCNaP cells |

Source: US20070015149A1, “Prlz regulatory elements in the treatment of disease and the discovery of therapeutics” (priority 2002, published 2007)
